PubChem BioAssay AID2060498 (Molecular Pharmacology Branch, DTP, NCI, 2025)

System: 171881-019-R-J1-PDC tumor spheroids, viability
Experiment: Anticancer human tumor 171881-019-R-J1-PDC patient-derived invasive breast carcinoma cell line growth inhibition [GQUAD]
Settings: spheroids with HUVEC and MSC; for IC50: curve of first compound; for viability, T/C: stronger effect = lower value
Text: DNA G-quadruplex Stabilizer Agents in Combinations in Complex Spheroids
A high-throughput screen of multi-cell type tumor spheroids was designed to identify active combinations of DNA G-quadruplex stabilizer agents and targeted small molecules. Complex spheroids include a stromal component modeled by human endothelial cells (HUVEC) and fibroblasts modeled by human mesenchymal stem cells (MSCs). The concentration ranges selected for each drug and investigational agent were based upon clinically achievable concentrations if the clinical Cmax of the agent was known.
Compounds. The drugs and investigational agents: pidnarulex (CX-5461; NSC782164), APTO-253 (NSC789042), BRACO-19 (NSC847499), peposertib (NSC802822), ceralasertib (NSC780249), elimusertib (NSC800525), camonsertib (NSC841442), AZD-1390 (NSC803789), olaparib (NSC753686), talazoparib (NSC767125), ART-558 (NSC835418), sotorasib (NSC818433), MRTX-1133 (NSC836407), SN-38 (NSC673596), topotecan (NSC609699), etoposide (NSC141540), doxorubicin (NSC123127), gemcitabine (NSC613327), 5-fluorouracil (NSC19893), paclitaxel (NSC125973), vemurafenib (NSC761431), panobinostat (NSC761190), R-306465 (JNJ-16241199; NSC773264), adavosertib (NSC754352), TP-3654 (NSC805149), carboplatin (NSC241240), KSQ-4279 (NSC840948), and staurosporine (NSC755774) were obtained from the National Cancer Institute (NCI) Developmental Therapeutics Program Chemical Repository (34). The FDA-approved anticancer drug set is available from the NCI Developmental Therapeutics Program. […] The stock solutions were prepared in dimethyl sulfoxide (DMSO, Sigma-Aldrich, St. Louis, MO, cat. D2650) at 800-fold the tested concentration and stored at -70 degrees C prior to their use. All drugs and investigational agents were tested over a range starting from a high concentration at or near the clinical Cmax and decreasing in half-log increments. If the clinical Cmax for an agent had not been determined, the highest concentration tested was 10 microM.
2.3 Cell Culture. All cells were maintained in an incubator at 37 degrees C and 5% CO2 with 95% humidity. The PDC lines were cultured according to standard operating procedures established by the NCI PDMR. All PDCs were thawed and cultured in Matrigel-coated flasks prepared with a working solution of 1X Ham's F-12 nutrient mix, without supplementation (Invitrogen, cat. 11765054), 100 U/mL penicillin-streptomycin (Invitrogen, cat. 15140122), and 2.5% Matrigel (Corning Inc., cat. 354248) for the first three passages. The 857933-349-R-J2-PDC line was cultured in 6C/Colon 1B media, which includes advanced DMEM/F-12 (Thermo Fisher Scientific, cat. 12634028), 10 mM HEPES (Thermo Fisher Scientific, cat. 15630080), 1X GlutaMAX supplement (Thermo Fisher Scientific, cat. 35050061), 0.1 mg/mL primocin (InvivoGen, cat. ant-pm-2), 10% defined fetal bovine serum, heat inactivated (HyClone Laboratories Inc., cat. SH30070.03HI), 50% L-WRN conditioned media (ATCC, cat. CRL-3276), 1.25 mM N-Acetyl-L-cysteine (Sigma-Aldrich, cat. A9165), 10 mM nicotinamide (Sigma-Aldrich, cat. N0636), 1X B-27 supplement (Thermo Fisher Scientific, cat. 17504044), 1X N-2 supplement (Thermo Fisher Scientific, cat. 17502048), 10 microM Y-27632 dihydrochloride (Tocris Bioscience, cat. 1254), and 50 ng/mL human EGF recombinant protein (Thermo Fisher Scientific, cat. PHG0311). The 485176-168-R4-J1-PDC line was cultured in Panc media, which includes all 6C/Colon 1B media components plus 100 ng/mL human FGF-10 (Thermo Fisher Scientific, cat. 100-26), 500 nM SB-431542 (Selleckchem, cat. S1067), and gastrin (Tocris, cat. 3006).
[…]

[1] = second compound 0.0316 µM, first compound 0.0316 µM
[2] = second compound 0.0316 µM, first compound 0.1 µM
[3] = second compound 0.0316 µM, first compound 0.316 µM
[4] = second compound 0.0316 µM, first compound 1 µM
[5] = second compound 0.0316 µM, first compound 3.16 µM
[6] = second compound 0.0316 µM, first compound 10 µM
[7] = second compound 0.1 µM, first compound 0.0316 µM
[8] = second compound 0.1 µM, first compound 0.1 µM
[9] = second compound 0.1 µM, first compound 0.316 µM
[10] = second compound 0.1 µM, first compound 1 µM
[11] = second compound 0.1 µM, first compound 3.16 µM
[12] = second compound 0.1 µM, first compound 10 µM
[13] = second compound 0.316 µM, first compound 0.0316 µM
[14] = second compound 0.316 µM, first compound 0.1 µM
[15] = second compound 0.316 µM, first compound 0.316 µM
[16] = second compound 0.316 µM, first compound 1 µM
[17] = second compound 0.316 µM, first compound 3.16 µM
[18] = second compound 0.316 µM, first compound 10 µM
[19] = second compound 1 µM, first compound 0.0316 µM
[20] = second compound 1 µM, first compound 0.1 µM
[21] = second compound 1 µM, first compound 0.316 µM
[22] = second compound 1 µM, first compound 1 µM
[23] = second compound 1 µM, first compound 3.16 µM
[24] = second compound 1 µM, first compound 10 µM
[25] = second compound 3.16 µM, first compound 0.0316 µM
[26] = second compound 3.16 µM, first compound 0.1 µM
[27] = second compound 3.16 µM, first compound 0.316 µM
[28] = second compound 3.16 µM, first compound 1 µM
[29] = second compound 3.16 µM, first compound 3.16 µM
[30] = second compound 3.16 µM, first compound 10 µM
[31] = second compound 10 µM, first compound 0.0316 µM
[32] = second compound 10 µM, first compound 0.1 µM
[33] = second compound 10 µM, first compound 0.316 µM
[34] = second compound 10 µM, first compound 1 µM
[35] = second compound 10 µM, first compound 3.16 µM
[36] = second compound 10 µM, first compound 10 µM
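Note: spheroids exposed to compounds for 7 days.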
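Throughout, for viability, T/C: 100% = DMSO vehicle control viability.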

C=CCn1c(=O)c2cnc(Nc3ccc(N4CCN(C)CC4)cc3)nc2n1-c1cccc(C(C)(C)O)n1 + CN(C)c1ccc(Nc2c3ccc(NC(=O)CCN4CCCC4)cc3nc3cc(NC(=O)CCN4CCCC4)ccc23)cc1
IC50 (second compound 0.0316 µM): 783 nM
IC50 (second compound 0.1 µM): 707 nM
IC50 (second compound 0.316 µM): < 31.6 nM
IC50 (second compound 1 µM): < 31.6 nM
IC50 (second compound 3.16 µM): < 31.6 nM
IC50 (second compound 10 µM): < 31.6 nM
viability, T/C [1]: 105%
viability, T/C [2]: 86.5%
viability, T/C [3]: 87.6%
viability, T/C [4]: 40%
viability, T/C [5]: 21.3%
viability, T/C [6]: 23.7%
viability, T/C [7]: 106%
viability, T/C [8]: 99%
viability, T/C [9]: 66.8%
viability, T/C [10]: 45.5%
viability, T/C [11]: 24.1%
viability, T/C [12]: 27.5%
viability, T/C [13]: 39.8%
viability, T/C [14]: 38.4%
viability, T/C [15]: 36.4%
viability, T/C [16]: 15.2%
viability, T/C [17]: 16.5%
viability, T/C [18]: 9.97%
viability, T/C [19]: 3.15%
viability, T/C [20]: 2.55%
viability, T/C [21]: 3.78%
viability, T/C [22]: 2.12%
viability, T/C [23]: 1.52%
viability, T/C [24]: 1.18%
viability, T/C [25]: 0.41%
viability, T/C [26]: 0.2%
viability, T/C [27]: 0.36%
viability, T/C [28]: 0.19%
viability, T/C [29]: 0.51%
viability, T/C [30]: 0.13%
viability, T/C [31]: 0.13%
viability, T/C [32]: 0.12%
viability, T/C [33]: 0.54%
viability, T/C [34]: 0.29%
viability, T/C [35]: 0.16%
viability, T/C [36]: 0.14%

CC(C)(O)C1CCC(Nc2ccc3ncc(-c4cccc(C(F)(F)F)c4)n3n2)CC1 (centres undefined) + CN(C)c1ccc(Nc2c3ccc(NC(=O)CCN4CCCC4)cc3nc3cc(NC(=O)CCN4CCCC4)ccc23)cc1
IC50 (second compound 0.0316 µM): 1860 nM
IC50 (second compound 0.1 µM): 1840 nM
IC50 (second compound 0.316 µM): < 31.6 nM
IC50 (second compound 1 µM): < 31.6 nM
IC50 (second compound 3.16 µM): < 31.6 nM
IC50 (second compound 10 µM): < 31.6 nM
viability, T/C [1]: 99.9%
viability, T/C [2]: 103%
viability, T/C [3]: 102%
viability, T/C [4]: 73.8%
viability, T/C [5]: 30%
viability, T/C [6]: 25.6%
viability, T/C [7]: 94.5%
viability, T/C [8]: 99.5%
viability, T/C [9]: 101%
viability, T/C [10]: 77.1%
viability, T/C [11]: 24.3%
viability, T/C [12]: 27.6%
viability, T/C [13]: 43.7%
viability, T/C [14]: 47.2%
viability, T/C [15]: 39.3%
viability, T/C [16]: 22.2%
viability, T/C [17]: 9.07%
viability, T/C [18]: 6.72%
viability, T/C [19]: 3.24%
viability, T/C [20]: 2.74%
viability, T/C [21]: 3.28%
viability, T/C [22]: 1%
viability, T/C [23]: 0.4%
viability, T/C [24]: 0.21%
viability, T/C [25]: 0.19%
viability, T/C [26]: 0.18%
viability, T/C [27]: 0.29%
viability, T/C [28]: 0.13%
viability, T/C [29]: 0.43%
viability, T/C [30]: 0.14%
viability, T/C [31]: 0.15%
viability, T/C [32]: 0.47%
viability, T/C [33]: 0.23%
viability, T/C [34]: 0.13%
viability, T/C [35]: 0.32%
viability, T/C [36]: 0.17%
